PubChem BioAssay (NCI)
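Following 48 hours of exposure in 96-well plates, responses at five concentrations were used to interpolate endpoints linearly. Here, GI50 denotes the concentration required for 50% inhibition of growth. TGI: concentration producing complete growth inhibition.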 Residues, ends and D or L forms follow the SMILES beside them. *: point of attachment. Boc = CC(C)(C)OC(=O)*; OBn = c1ccc(CO*)cc1

Assays:
Assay in all cases: DTP human tumour cell line panel, 48 h
[1] = system: SK-MEL-5 melanoma
[2] = system: HCT-116 colon
[3] = system: M14 melanoma
[4] = system: SF-539 CNS
[5] = system: OVCAR-8 ovarian
[6] = system: HOP-62 NSCLC
[7] = system: HCT-15 colon
[8] = system: BT-549 breast
[9] = system: MDA-MB-435
[10] = system: PC-3 prostate

Row | SMILES | TGI [1] [µM] | TGI [2] [µM] | TGI [3] [µM] | TGI [4] [µM] | TGI [5] [µM] | TGI [6] [µM] | TGI [7] [µM] | TGI [8] [µM] | TGI [9] [µM] | TGI [10] [µM] | GI50 [1] [µM] | GI50 [10] [µM] | GI50 [4] [µM]
1 | NC(=O)N/N=C(/Cc1nc2ccc(C(=O)c3ccccc3)cc2[nH]c1=O)C(=O)Nc1ccc(C(F)(F)F)cc1[N+](=O)[O-] | > 100 | > 100 | > 100 | > 100 | > 100 | > 100 | > 100 |  |  |  |  |  | 
2 | CC(=O)c1cccc(NC(=O)C(=O)C(c2cnc3ccc([N+](=O)[O-])cc3n2)[N+](=O)[O-])c1 (centres undefined) |  | > 100 | > 100 | > 100 | > 100 | > 100 | > 100 | > 100 | > 100 | > 100 |  |  | 
3 | Oc1ccccc1C1=NOC(c2ccc(C(F)(F)F)cc2)C1 (centres undefined) | > 50 | > 50 | > 50 | > 50 | > 50 | > 50 | > 50 | > 50 | > 50 | > 50 |  |  | 
4 | CC(C)(C)OC(=O)C1=C2C=C(O)C=CC2(C)N(Cc2ccccc2)C1=N (centres undefined) | 15.9 | 9.83 | 10.4 | 12.7 | 10.6 | 30.7 | 14.9 | 4.58 | 21.5 | 19.8 |  |  | 
5 | O=c1[nH]nc(Cn2c3ccc(Br)cc3c3nc4ccccc4nc32)n1C1CCCCC1 | > 100 | > 100 | > 100 | 46 | > 100 | 52.8 | > 100 | > 100 | > 100 | 59.8 |  |  | 
6 | O=c1c2cc(I)ccc2nc(SCc2n[nH]c(=S)o2)n1Cc1ccccc1 | 26.2 | 29.4 | 43.6 | 30.3 | 40.4 | 41 | 34 | 37.1 | 44.4 | 31.3 |  |  | 
7 | CC(C)CC(NC(=O)OC(C)(C)C)C(=O)N1CCCC1C(=O)OCc1ccccc1 (stereo not drawn) (Boc-Leu-Pro-OBn; configuration not given here) | > 100 | > 100 | > 100 | > 100 | > 100 |  | > 100 | > 100 | > 100 | > 100 |  |  | 
8 | O=C(Nc1cc(Cl)cc(Cl)c1)/C(Cc1nc2ccccc2[nH]c1=O)=N/NC(=O)c1ccncc1 | > 100 | > 100 | > 100 | > 100 | > 100 | > 100 | > 100 |  |  |  |  |  | 
9 | O=C1c2ccccc2CC12Cc1ccccc1C2 | 56.1 | > 100 | > 100 | > 100 | > 100 | > 100 | > 100 | > 100 | > 100 | > 100 |  |  | 
10 | N#Cc1c(Cl)nc2ccccc2c1N=[N+]=[N-] | 27.7 | 3.06 | 6.48 | 4.6 | 7.7 | 32.7 | 4.3 | 4.16 | 17.7 | 8.44 |  |  | 
11 | O=S(=O)(c1ccccc1)n1cc(C[P+](c2ccccc2)(c2ccccc2)c2ccccc2)c2ccccc21 | 3.29 | 15.2 | 7.04 | 16.8 | 12.6 | 12.6 | 30.5 |  |  |  |  |  | 
12 | CN(C)c1ccc(-c2ccc(N(C)C)c3n[se]nc23)c2n[se]nc12 | > 100 | > 100 |  | > 100 | > 100 | > 100 | > 100 | > 100 | > 100 | > 100 |  |  | 
13 | N=C(N)c1ccc(-c2ccc(-c3cccs3)s2)s1 | 2.34 |  |  | 2.96 |  |  |  |  |  | 2.98 | 1.02 | 1.53 | 1.58
14 | CCCCCCOc1ccc(C(=O)N(C)O)cc1 | 62.5 | > 100 | 39.3 | 44.6 | 61 | > 83.5 | > 82.9 | > 100 | 98.1 | 98 |  |  | 
15 | Cc1nn2c(C(=O)N/N=C/c3ccc([N+](=O)[O-])cc3)c(C)nc2s1 | > 100 | > 100 | > 100 | > 100 | > 100 | > 100 | > 100 | > 100 | > 100 |  |  |  | 
16 | Cc1sc(C)c2c1C(=O)CC2N (centres undefined) | > 100 | 28.9 | 27.6 | 14.2 | 44.9 | > 100 | > 58.3 | 43.7 | 53.6 | > 60.6 |  |  | 
17 | CN(C)CC1CCCCCCCCCC(CN(C)C)C1=O (centres undefined) | 41.2 | > 64.5 | > 49.1 | > 47 | > 54.8 | > 62.4 | > 61.2 | 18.7 | 19.7 | 19.4 |  |  | 
18 | O=C(O)C1(Cc2ccc3c(c2)CCC3)Cc2ccccc2C1 | > 100 | > 100 | > 100 | > 100 | > 100 | > 100 | > 100 | > 100 | > 100 | > 100 |  |  | 
19 | O=c1oc2ccc(Cl)cc2cc1-c1cn2ccccc2n1 | > 100 | 45.2 | > 100 | > 100 | > 100 | 16.1 | > 100 | > 100 | > 100 | > 100 |  |  | 
20 | NCCCCC(=O)c1cccnc1 | > 100 | > 100 | > 100 | > 100 | > 100 | > 100 | > 100 |  |  |  |  |  | 
21 | N#Cc1nc(-c2ccccn2)oc1N | > 100 | > 100 |  |  |  | > 100 | > 100 | > 100 | > 100 | > 100 |  |  | 
22 | COc1ccc(/C=C2/NC(=S)N=C2Cl)cc1 | > 100 | > 100 | > 100 | > 100 | > 100 | > 100 | > 100 |  | > 100 | > 100 |  |  | 
23 | CN(C)CCn1c(=O)c2ccc3c4c(nn3CCN(C)C)c3cc([N+](=O)[O-])ccc3n(c1=O)c24 | 1.98 | 0.325 | 1.29 | 2.83 | 0.959 | 0.974 | 0.745 | 3.34 | 0.219 | 0.576 |  |  | 

Row | SMILES | TGI [1] [µM] | TGI [2] [µM] | TGI [3] [µM] | TGI [4] [µM] | TGI [5] [µM] | TGI [6] [µM] | TGI [7] [µM] | TGI [8] [µM] | TGI [9] [µM] | TGI [10] [µM] | GI50 [1] [µM] | GI50 [10] [µM] | GI50 [4] [µM]
24 | COC(=O)C1=C(C(=O)OC)SC(=C2S[C@@H]3[C@@H]4C[C@H]([C@@H]3S2)[C@H]2C(=O)OC(=O)[C@@H]42)S1 | > 100 | > 100 | > 100 | > 100 | > 100 | > 100 | > 100 | > 100 | > 100 | > 100 |  |  | 
25 | Clc1ccc(-c2ccc(-c3nnc(COc4ccc(OCc5nnc(-c6ccc(-c7ccc(Cl)cc7Cl)o6)o5)c(Cl)c4)o3)o2)c(Cl)c1 | > 100 | > 100 | > 100 |  | > 100 | > 100 | > 100 | > 100 | > 100 |  |  |  | 
26 | Cc1cc(=O)[nH]c(NNC(C#N)c2c(O)ccc3ccccc23)n1 (centres undefined) | 13 | 17.1 | 15.6 | 13.7 | 68.2 | 73.8 | 18.8 |  |  |  |  |  | 
27 | Nc1nc2ccc(OCC(O)CN3CCCCC3)cc2[n+]([O-])n1 (centres undefined) | > 100 | > 100 | > 100 | > 100 | > 100 |  | > 100 | > 100 | > 100 | > 100 |  |  | 
28 | O=[N+]([O-])/C(C(Cl)=C(Cl)Cl)=C(\Nc1ccccc1)n1nnc2ccccc21 |  | > 100 | > 100 | > 100 | > 100 | 93.6 | > 100 | 70.2 | 86.5 | > 100 |  |  | 
29 | CC1(C)C2CC3C4CC5(Nc6ccccc6C5N41)[C@]3(C)CC2=O (some centres undefined) | > 50 | > 50 |  | > 50 | > 50 | > 50 | > 50 | > 50 | > 50 | > 50 |  |  | 
30 | CN1C=Cc2nccc3cc4c(c1c23)OCO4 | 4.84 | 35.2 | 11.7 |  | > 100 | 32.7 | > 66.3 | 7.36 | 12.1 | 40.9 |  |  | 
31 | CCOC(=O)/C=C/[C@H](O)[C@@H](O)/C=C/C(=O)OCC | > 100 | 43 |  | > 100 | 44.8 | 85 | 59.7 | > 100 | > 100 | > 100 |  |  | 
32 | Cc1c(N/C=C(\C#N)C(=O)c2ccc(Cl)cc2)c(=O)n(-c2ccccc2)n1C | > 100 | > 100 | > 100 | > 100 | > 100 |  | > 100 | > 100 | > 100 | > 100 |  |  | 
33 | [O-][N+]1=NC(c2ccccc2)=C1c1ccccc1 | > 50 | > 50 | > 50 | > 50 | > 50 | > 50 | > 50 |  | > 50 | > 50 |  |  | 
34 | CN(C)S(=O)(=O)n1cnc(CO)c1 | > 100 | > 100 | > 100 | > 100 |  | > 100 | > 100 | > 100 | > 100 | > 100 |  |  | 
35 | CC1=CC(C)C(C)N(CCNS(=O)(=O)c2ccc(C)cc2)c2ccccc21 (centres undefined) |  | 17.7 | 17.5 | 18.1 | 24 | 27 | > 31.6 | 31.7 | 18.9 | 30.5 |  |  | 
36 | COc1ccc(/C=C2\Sc3nnc(CNc4ccc(Cl)cc4)n3N=C2c2cc(F)c(Cl)cc2Cl)cc1OC | > 100 | > 100 | > 100 | > 100 | > 100 | > 100 | > 100 |  | > 100 | > 100 |  |  | 
37 | CC1Cc2cc(O)c(O)cc2-c2cc(O)c(O)cc2CC1C (centres undefined) | 17.4 | 34.5 | 29.7 | 19.6 | 53.3 | 41.9 | 36.1 |  | 10.5 | 61.5 |  |  | 
38 | O=C1NC(=O)/C(=C/c2ccc(S(=O)(=O)N/N=C\C(O)C(O)C(O)C(O)CO)cc2)N1 (centres undefined) | > 100 | > 100 | > 100 |  | > 100 | > 100 | > 100 | > 100 | > 100 | > 100 |  |  | 
39 | Cc1cnc2c(c1)C(=O)C1=C(OC(C)(C)CC1O)C2=O (centres undefined) | 26.9 | 27.9 | 30.5 | 31.4 | 35.6 | 34 | 36.2 |  |  |  |  |  | 
40 | CCN(CC)CCCNc1nc(=O)[nH]c(C)c1C(=O)Nc1ccc2c(c1)c1ccccc1n2CC | > 100 | > 100 | > 100 | > 100 | > 100 | > 100 | > 100 |  | > 100 | > 100 |  |  | 
41 | COC(=O)c1ccccc1/C=C1\Cc2c(C)cc(C)cc2C1=O | > 100 | > 100 | > 100 | > 100 | > 100 | > 100 | > 100 | > 100 |  | > 100 |  |  | 
42 | NCCSCc1ccccc1Cl | > 100 | > 100 | > 100 |  | > 100 | > 100 | > 100 | > 100 | > 100 | 93.8 |  |  | 
43 | CC(C)(C)OC/C=C1\C(=O)O[C@H]2C[C@@H](O[Si](C)(C)C(C)(C)C)C[C@@H]12 | > 100 | > 100 | > 100 |  | > 100 | > 100 | > 100 | > 100 | > 100 | > 100 |  |  | 
44 | COc1ccc(N=Nc2c(C)c(C#N)c(=S)n(C3OC(CO)C(O)C(O)C3O)c2C)cc1 (centres undefined) | 35.1 | > 100 | > 100 | > 100 |  | > 100 | > 100 | > 100 | > 100 | > 100 |  |  | 
45 | O=C1NC(N2CCCCC2)=N/C1=C\c1ccccc1O | > 100 | > 100 | > 100 | > 100 | > 100 | > 100 | > 100 |  | > 100 | > 100 |  |  | 
46 | COC(=O)[C@@H](Cc1ccccc1)N1O[C@]12CCCC[C@@H]2NC(=O)OC(C)(C)C (some centres undefined) | 35.8 | > 100 | 50.9 | 33.3 |  | 38.2 | 33.5 | 34.8 | 54.5 | 84.2 |  |  | 
